target: wild-type human cardiac sodium channel, hNav1.5 (late sodium current) in HEK293 cells (Homo sapiens, UniProt Q14524); assay: Late INa screening assay (automated whole-cell patch clamp, PatchXpress); type: cell-based; conditions: HEK293, compound at 1 μM; late INa generated with 10 μM Tefluthrin (or 50 nM ATX II); HEK293 hNav1.5; read-out: Late INa 1 μM (percent block of late INa)
Method in brief: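 Percent block was derived from mean current 225–250 ms into a 250 ms depolarisation to −20 mV (holding −120 mV, every 10 s), normalised to the current left in Na-free solution. Whole-cell recordings came from HEK293 cells stably expressing α-subunit-only hNav1.5, at 24–27 °C. Late current was enhanced with 10 μM tefluthrin or 50 nM ATX II, then compound (typically 10 μM) was added three times over 7–8 min.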

Sequence of wild-type human cardiac sodium channel, hNav1.5 (late sodium current) in HEK293 cells (Q14524 whole entry): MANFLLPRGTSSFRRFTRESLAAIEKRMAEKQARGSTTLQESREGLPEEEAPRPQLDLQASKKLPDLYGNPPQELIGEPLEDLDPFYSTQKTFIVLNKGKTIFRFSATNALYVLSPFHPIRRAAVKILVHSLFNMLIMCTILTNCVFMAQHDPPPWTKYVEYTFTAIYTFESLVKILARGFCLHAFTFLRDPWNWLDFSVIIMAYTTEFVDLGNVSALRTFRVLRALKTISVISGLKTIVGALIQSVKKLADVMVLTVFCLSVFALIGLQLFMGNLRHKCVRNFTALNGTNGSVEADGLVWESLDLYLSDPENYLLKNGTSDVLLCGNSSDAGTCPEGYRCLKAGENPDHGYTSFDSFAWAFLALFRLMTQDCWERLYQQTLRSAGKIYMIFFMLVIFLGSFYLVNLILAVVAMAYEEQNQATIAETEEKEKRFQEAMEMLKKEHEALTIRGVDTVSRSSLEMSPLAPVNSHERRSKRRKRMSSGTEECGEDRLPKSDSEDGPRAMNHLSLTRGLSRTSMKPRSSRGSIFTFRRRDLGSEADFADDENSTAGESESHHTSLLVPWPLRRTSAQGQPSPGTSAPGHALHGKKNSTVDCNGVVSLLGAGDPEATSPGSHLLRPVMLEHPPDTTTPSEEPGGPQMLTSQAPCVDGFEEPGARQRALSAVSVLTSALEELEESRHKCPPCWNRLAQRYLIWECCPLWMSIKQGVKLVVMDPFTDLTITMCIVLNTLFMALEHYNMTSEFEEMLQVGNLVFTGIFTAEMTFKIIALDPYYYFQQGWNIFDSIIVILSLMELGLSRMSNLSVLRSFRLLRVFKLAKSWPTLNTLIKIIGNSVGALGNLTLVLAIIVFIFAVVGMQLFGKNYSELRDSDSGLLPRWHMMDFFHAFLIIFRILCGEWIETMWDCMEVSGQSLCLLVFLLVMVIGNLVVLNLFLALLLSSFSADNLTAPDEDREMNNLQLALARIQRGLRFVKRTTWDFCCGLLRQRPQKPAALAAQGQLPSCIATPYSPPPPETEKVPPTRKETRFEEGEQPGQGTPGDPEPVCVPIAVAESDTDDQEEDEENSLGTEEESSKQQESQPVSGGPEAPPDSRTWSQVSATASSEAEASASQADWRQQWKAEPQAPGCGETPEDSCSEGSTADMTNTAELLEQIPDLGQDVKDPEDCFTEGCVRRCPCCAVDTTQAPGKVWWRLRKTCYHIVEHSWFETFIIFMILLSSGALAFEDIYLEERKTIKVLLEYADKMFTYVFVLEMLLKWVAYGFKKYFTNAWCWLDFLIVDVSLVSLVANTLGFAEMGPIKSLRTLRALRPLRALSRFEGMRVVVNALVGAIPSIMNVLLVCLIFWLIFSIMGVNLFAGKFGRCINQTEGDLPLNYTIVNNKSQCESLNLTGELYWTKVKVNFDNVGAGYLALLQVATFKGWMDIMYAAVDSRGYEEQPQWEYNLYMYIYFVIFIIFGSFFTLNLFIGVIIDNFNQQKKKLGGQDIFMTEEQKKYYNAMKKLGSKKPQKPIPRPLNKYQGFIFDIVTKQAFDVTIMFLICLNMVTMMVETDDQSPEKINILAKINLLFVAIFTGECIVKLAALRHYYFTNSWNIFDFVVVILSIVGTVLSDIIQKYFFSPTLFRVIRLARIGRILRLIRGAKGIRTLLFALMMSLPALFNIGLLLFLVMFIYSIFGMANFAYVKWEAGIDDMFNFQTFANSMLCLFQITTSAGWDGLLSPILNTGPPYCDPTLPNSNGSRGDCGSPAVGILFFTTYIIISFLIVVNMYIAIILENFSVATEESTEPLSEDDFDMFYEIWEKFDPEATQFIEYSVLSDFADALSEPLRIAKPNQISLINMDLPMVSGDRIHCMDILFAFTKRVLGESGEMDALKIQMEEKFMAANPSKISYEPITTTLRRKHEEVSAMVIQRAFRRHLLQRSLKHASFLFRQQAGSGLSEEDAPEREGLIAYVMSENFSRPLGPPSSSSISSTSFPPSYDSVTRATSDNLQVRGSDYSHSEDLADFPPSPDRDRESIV

Question: Which inhibition at 1 µM does the source give for CSc1ccnc(OCCn2nc3ccc(-c4ccc(OC(F)(F)F)cc4)cn3c2=O)n1 [compound 159, 2-(2-(4-(methylthio)pyrimidin-2-yloxy)ethyl)-6-(4-(trifluoromethoxy)phenyl)-[1,2,4]triazolo[4,3-a]pyridin-3(2H)-one] here?
Answer: Its inhibition at 1 µM is 49.6%.

Question: O=c1n(CCOc2ccccn2)nc2ccc(-c3ccc(OC(F)(F)F)cc3)cn12 [compound 49, 2-(2-(pyridin-2-yloxy)ethyl)-6-(4-(trifluoromethoxy)phenyl)-[1,2,4]triazolo[4,3-a]pyridin-3(2H)-one] was tested. Which inhibition at 1 µM did it give?
Answer: Its inhibition at 1 µM is 29.9%.

Question: How did the inhibition at 1 µM turn out when COc1cc(Cl)c(Cl)cc1OCC(O)Cn1nc2ccc(-c3ccc(C(F)(F)F)cc3)cn2c1=O (stereo not shown) [compound 198, 2-(3-(4,5-dichloro-2-methoxyphenoxy)-2-hydroxypropyl)-6-(4-(trifluoromethyl)phenyl)-[1,2,4]triazolo[4,3-a]pyridin-3(2H)-one] was run?
Answer: The inhibition at 1 µM was 14.8%.

Question: With Cc1coc(Cn2nc3ccc(-c4ccc(C(F)(F)F)cc4)cn3c2=O)n1 [compound 192, 2-((4-methyloxazol-2-yl)methyl)-6-(4-(trifluoromethyl)phenyl)-[1,2,4]triazolo[4,3-a]pyridin-3(2H)-one] as the compound, how does the inhibition at 1 µM read?
Answer: The inhibition at 1 µM was 34.4%.

Question: Which inhibition at 1 µM does the source give for Cc1cc(Cn2nc3ccc(-c4ccc(OC(F)(F)F)cc4)cn3c2=O)on1 [compound 164, 2-((3-methylisoxazol-5-yl)methyl)-6-(4-(trifluoromethoxy)phenyl)-[1,2,4]triazolo[4,3-a]pyridin-3(2H)-one] here?
Answer: The inhibition at 1 µM was 16.9%.

Question: COc1cnc(OCCn2nc3ccc(-c4ccc(OC(F)(F)F)cc4)cn3c2=O)nc1 [compound 116, 2-(2-(5-methoxypyrimidin-2-yloxy)ethyl)-6-(4-(trifluoromethoxy)phenyl)-[1,2,4]triazolo[4,3-a]pyridin-3(2H)-one] was tested. Which inhibition at 1 µM did it give?
Answer: The inhibition at 1 µM was 31.3%.

same assay, conditions: compound at 1 μM; late INa generated with 10 μM Tefluthrin (or 50 nM ATX II); HEK293 hNav1.5

Question: How did the “Late INa 1 μM (percent block of late INa)” value turn out when O=c1n(CCCOc2ccccc2C(F)(F)F)nc2ccc(-c3ccc(OC(F)(F)F)cc3)cn12 [compound 71, 6-(4-(trifluoromethoxy)phenyl)-2-(3-(2-(trifluoromethyl)phenoxy)propyl)-[1,2,4]triazolo[4,3-a]pyridin-3(2H)-one] was run?
Answer: Its value is 26.0692%.

Reference: patent US9079901B2, “Fused heterocyclic compounds as ion channel modulators” (Gilead Sciences, Inc., priority 2010, dated 2015)
